Measurements taken from patent US20130316016A1, “ANTIBACTERIAL OR ANTI-ACNE FORMULATIONS CONTAINING USNIC ACID OR AN USNATE AND A METAL SALT” (EVOCUTIS PLC, priority 2010, published 2013).
Marks after values point to notes of the source that are not given here.

Tested on: Propionibacterium acnes NCTC 737
Experiment: fixed ratio combination MIC/MBC assay
Format: cell-based
Settings: for active against P. acnes NCTC 737: compound alone, statement in words; for MBC / MIC: test compound alone; for MBC: P. acnes NCTC 737; for MIC: P. acnes NCTC 737, pH 6.0, anaerobic, 37° C., 72 hours
Procedure: The test organism used was Propionibacterium acnes NCTC 737. This is a propionibacterial strain and is the type strain of the […]; it is fully susceptible to antibiotics. The propionibacteria are clinically significant due to their involvement in acne. They are also opportunistic pathogens in compromised hosts. Activity observed against these micro-organisms is expected to be a good predictor of activity against acne. The propionibacteria were cultured and maintained on Wilkins-Chalgren Anaerobe Medium (agar and broth) at pH 6.0; all cultures were incubated anaerobically at 37° C. for 72 hours. The following “fixed ratio combination MIC/MBC assay” was carried out to assess antimicrobial activity against the test organism. The method used a sterile 96-well microtitre plate, capable of holding about 200 μl of liquid per well. […] The culture medium was as described above. The wells were inoculated with a liquid suspension of freshly grown micro-organism and incubated under the conditions described above. After incubation, the microtitre plate was examined visually (with the aid of a light box) for cloudiness in each well, which would indicate microbial growth. The minimum inhibitory concentration (MIC) value was recorded as the lowest concentration of test compound alone, or the lowest concentration of the mixture of the two test compounds, required to inhibit microbial growth, i.e. where the liquid in the well remained clear. The assays were conducted in triplicate and included both negative (culture medium with no micro-organisms) and positive (culture medium plus diluting solvent(s) plus micro-organism) controls. […] These samples were then individually sub-cultured on antibiotic-free agar medium, under the incubation conditions described above. Following incubation they were examined visually for microbial growth. […] A fractional inhibitory concentration index (FICI) or fractional bactericidal concentration index (FBCI) was then calculated for each compound in the relevant mixture, and these two indices were added together to give an overall FICI or FBCI to indicate the mode of interaction. Thus for each mixture (of two compounds A and B) which was tested, the FIC for compound A (FICA)=MIC for (A+B)/MIC for A alone. Similarly the FIC for compound B (FICB)=MIC for (A+B)/MIC for B alone. The overall […]. FBCs and FBCIs were calculated in the same manner, using recorded MBC values.

Row | Compound | active against P. acnes NCTC 737 | MBC | MIC
1 | [Cl][Bi]([Cl])[Cl] [Bismuth (III) chloride, bismuth (III) chloride] | active | >19* μg/ml | 19 µg/mL
2 | CC(=O)[O-].[Cu+] [Copper (I) acetate, copper (I) acetate] |  | 22.2 µg/mL | 11.1 µg/mL
3 | CC(=O)[O-].CC(=O)[O-].[Cu+2] [Copper (II) acetate, copper (II) acetate] |  | >16.8* μg/ml | 16.8 µg/mL
4 | [Cl][Cu][Cl] [Copper (II) chloride, copper (II) chloride] |  | >22.25* μg/ml | 12.2 µg/mL
5 | O=S(=O)([O-])[O-].[Cu+2] [Copper (II) sulphate, copper (II) sulphate] | active | >14.5* μg/ml | >14.5* μg/ml
6 | CC(=O)c1c(O)c(C)c(O)c2c1OC1=CC(=O)C(C(C)=O)C(=O)C12C (stereo not drawn) [Usnic acid, 2,6-diacetyl-7,9-dihydroxy-8,9b-dimethyl-1,3(2H,9bh)-dibenzofurandione] | active |  | 
7 | copper (II) D-gluconate |  | >41.1* μg/ml | >41.1* μg/ml
